# Measurements as given in patent publication US8710001B2, “PEGylated, extended insulins” (Novo Nordisk A/S, priority 2006, dated 2014).
# Molecular target: human insulin receptor, A-isoform (without exon 11) (Homo sapiens, UniProt P06213)
# Experiment: Insulin receptor binding, SPA (Scintillation Proximity Assay) microtiterplate antibody capture assay
# Conditions: affinity relative to human insulin; purified recombinant human insulin receptor; A14Tyr[125I]-human insulin tracer; 16 hours incubation
# Description: The affinity of the insulin derivatives of this invention for the human insulin receptor is determined by a SPA assay (Scintillation Proximity Assay) microtiterplate antibody capture assay. SPA-PVT antibody-binding beads, anti-mouse reagent (Amersham Biosciences, Cat No. PRNQ0017) are mixed with 25 ml of binding buffer (100 mM HEPES pH 7.8; 100 mM sodium chloride, 10 mM MgSO4, 0.025% Tween-20). Reagent mix for a single Packard Optiplate (Packard No. 6005190) is composed of 2.4 μl of a 1:5000 diluted purified recombinant human insulin receptor (either with or without exon 11), an amount of a stock solution of A14Tyr[^125I]-human insulin corresponding to 5000 cpm per 100 μl of reagent mix, 12 μl of a 1:1000 dilution of F12 antibody, 3 ml of SPA-beads and binding buffer to a total of 12 ml. A total of 100 μl reagent mix is then added to each well in the Packard Optiplate and a dilution series of the insulin derivative is made in the Optiplate from appropriate samples. The samples are then incubated for 16 hours while gently shaken. The phases are the then separated by centrifugation for 1 min and the plates counted in a Topcounter. The binding data were fitted using the nonlinear regression algorithm in the GraphPad Prism 2.01 (GraphPad Software, San Diego, Calif.).
# human insulin receptor, A-isoform (without exon 11), sequence (P06213 28-746 isoform P06213-2 limits assumed): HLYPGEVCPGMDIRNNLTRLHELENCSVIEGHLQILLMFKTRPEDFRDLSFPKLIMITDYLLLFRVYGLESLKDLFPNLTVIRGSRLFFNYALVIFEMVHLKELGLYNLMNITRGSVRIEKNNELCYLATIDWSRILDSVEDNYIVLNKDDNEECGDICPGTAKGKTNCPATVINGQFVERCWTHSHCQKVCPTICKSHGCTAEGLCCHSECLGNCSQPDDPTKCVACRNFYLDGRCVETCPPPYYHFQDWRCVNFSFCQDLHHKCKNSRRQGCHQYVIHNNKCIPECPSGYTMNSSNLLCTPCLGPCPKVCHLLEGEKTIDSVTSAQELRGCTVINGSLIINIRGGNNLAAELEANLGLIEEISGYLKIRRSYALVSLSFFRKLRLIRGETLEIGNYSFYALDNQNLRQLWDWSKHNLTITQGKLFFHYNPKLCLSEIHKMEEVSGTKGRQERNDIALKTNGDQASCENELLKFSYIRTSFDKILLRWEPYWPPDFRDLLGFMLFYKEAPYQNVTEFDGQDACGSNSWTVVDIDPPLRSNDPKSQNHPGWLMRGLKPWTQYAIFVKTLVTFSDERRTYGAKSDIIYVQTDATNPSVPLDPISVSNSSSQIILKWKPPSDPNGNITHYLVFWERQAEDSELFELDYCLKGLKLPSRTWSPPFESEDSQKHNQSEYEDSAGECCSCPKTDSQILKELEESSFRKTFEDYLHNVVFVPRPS
# human insulin receptor, A-isoform (without exon 11), sequence (P06213 763-1382 partner limits assumed): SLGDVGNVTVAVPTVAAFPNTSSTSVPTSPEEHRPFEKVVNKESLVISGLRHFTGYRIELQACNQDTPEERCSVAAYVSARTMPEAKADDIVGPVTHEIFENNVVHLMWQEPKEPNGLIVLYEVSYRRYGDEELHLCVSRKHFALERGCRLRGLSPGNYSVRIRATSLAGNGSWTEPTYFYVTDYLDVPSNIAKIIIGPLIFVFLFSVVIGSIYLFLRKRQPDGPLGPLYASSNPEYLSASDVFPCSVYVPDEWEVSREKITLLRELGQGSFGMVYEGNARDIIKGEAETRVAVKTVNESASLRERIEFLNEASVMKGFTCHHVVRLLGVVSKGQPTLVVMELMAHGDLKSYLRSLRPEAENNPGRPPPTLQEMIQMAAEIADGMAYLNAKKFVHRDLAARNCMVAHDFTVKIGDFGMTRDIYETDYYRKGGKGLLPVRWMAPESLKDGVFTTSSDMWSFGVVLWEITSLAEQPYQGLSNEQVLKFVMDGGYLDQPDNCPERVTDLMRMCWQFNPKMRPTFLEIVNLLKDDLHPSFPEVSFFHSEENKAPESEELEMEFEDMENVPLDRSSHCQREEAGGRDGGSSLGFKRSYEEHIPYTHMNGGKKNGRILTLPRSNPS
row,Substance,"Insulin receptor binding, A-isoform (without exon 11) Relative to human insulin [%]"
1,"A14E, A22K(N^+mPEG2000-Propionyl), B25H, B29R, desB30 Human Insulin [Example 16]",15
2,"A14E, A22K(N^ε(mdPEG12)3-dPEG4-yl), B25H, B29R, desB30 Human Insulin [Example 17]",19
3,"A14E, A22K(N^ε(mdPEG12)3-dPEG4-yl-dPEG12-yl), B25H, B29R, desB30 Human Insulin [Example 18]",16
4,"A22G, A23G, A24G, A25K(N^εmPEG750-Propionyl), B29R, desB30 Human Insulin [Example 7]",44
5,"A22G, A23K(N^εmPEG2000-Propionyl), B29R, desB30 Human Insulin [Example 8]",58
6,"A22K(N^ε(mdPEG12)3-dPEG4-yl), B29R, desB30 Human Insulin [Example 6]",120
7,"A22K(N^ε(mdPEG12)3-dPEG4-yl-dPEG12-yl), B29R, desB30 Human Insulin [Example 19]",106
8,"A22K(N^ε-mPEG2000-Propionyl), B29R, desB30 Human Insulin [Example 1]",90
9,"A22K(N^εmPEG2000-Propionyl), B29R, desB30 Human Insulin [Example 2]",90
10,"B29Q, B31K(N^ε(mPEG2000-Propionyl)) Human Insulin [Example 22]",14
